# System: CYP24 mRNA
# Test: CYP24 transcriptional activation assay in U-937 cells (real time PCR)
# Type: cell-based, human
# Details: six hours, normalized to GAPDH, 100 nM calcitriol set to 100%
# Procedure: 1α,25(OH)2D3 1 mM reconstituted in isopropanol
# • Sodium pyruvate • Non-essential amino acids • HEPES • 10% fetal bovine serum Phorbol 12-myristate 13-acetate (PMA) 24-well plate Isopropanol TRIzol® reagent (Invitrogen) Chloroform Ethanol Diethylpyrocarbonate treated dH2O Thermoscript™ RT-PCR System kit (Invitrogen) Human CYP24 TaqMan® Probe (Applied Biosystems Inc) Human GAPDH TaqMan® Probe (Applied Biosystems Inc) TaqMan® Universal Master Mix Probe (Applied Biosystems Inc) (ii) Procedure:
# 1. Cell Culture, Stimulation and Plating • Cultured U-937 cells in 4+RPMI media to a level of ≈80% confluence. Pelleted cells by centrifugation and resuspended to a concentration of 5×10^5 cells per 1 ml media. Treated U-937 cells with a final concentration of PMA of 20 ng/ml. To each well, of a 24-well plate, added 1 ml of cell suspension and incubated overnight at 37° C., in a humidified atmosphere containing 5% CO2, for adherence of cells to the wells.
# 2. Cell Treatment and TRIzol® Addition • Changed the media with 1 ml of fresh 4+RPMI media. Added 1 μl of the working solutions of 1, 10, and 100 μM of the compound being tested, in triplicate. Added 1 μl of isopropanol as a control, in triplicate. Incubated the cells for six hours at 37° C., in a humidified atmosphere containing 5% CO2, aspirated off the media and then added 1 ml of TRIzol® reagent. Transferred TRIzol® with cell lysate to a 1.7 ml microcentrifuge tube and stored at −80° C.
# 3. […] Determined the concentration of RNA using a spectrophotometer to measure the optical density of each sample, at a wavelength of 260 nm. […]
# 4. CYP24/GAPDH Real Time PCR • Determined the amount of CYP24 and GAPDH mRNA present in each sample using commercial TaqMan® probes, from Applied Biosystems Inc. (Foster City, Calif.). Detected both genes in the same 20 μl reaction, using an ABI PRISM 96-well optical reaction plate and cycle 50 times using an ABI Prism 7000 Sequence Detection System® (ABI). […]
structure (smiles),measurement,value
C=C1/C(=C\C=C2/CCC[C@]3(C)C([C@H](C)C/C=C/C(=NOC)C(C)(C)C)=CC[C@@H]23)C[C@@H](O)C[C@@H]1O [(20R)-I(e)],"CYP24 mRNA induction, activity as % of that for calcitriol at 100 nM",65%

# Source: patent US8906888B2, “Low-calcemic 16,23-diene 25-oxime analogs of 1α,25-dihydroxy vitamin D3” (Cytochroma Inc., priority 2005, dated 2014)
